Assays:
KARPAS-299 [1] = assay: cells; settings: Homo sapiens, KARPAS-299, 72 h
Description: Antiproliferative activity against human KARPAS299 cells expressing NMP-ALK assessed as reduction in cell viability incubated for 72 hrs by MTT assay

cells = settings: Homo sapiens, SKNBE2, 72 h
Description: Antiproliferative activity against human SK-N-BE(2) cells expressing wild type ALK assessed as reduction in cell viability incubated for 72 hrs by MTT assay

SH-SY5Y = assay: cells; settings: Homo sapiens, 72 h
Description: Antiproliferative activity against human SH-SY5Y cells expressing ALK F1174L mutant assessed as reduction in cell viability incubated for 72 hrs by MTT assay

NCI-H2228 = assay: cells; settings: Homo sapiens, NCI-H2228, 72 h
Description: Antiproliferative activity against human NCI-H2228 cells expressing EML4-ALK assessed as reduction in cell viability incubated for 72 hrs by MTT assay

KARPAS-299 [2] = assay: Cell cycle arrest in human KARPAS299 cells expressing […] assessed as accumulation of cells at G2 phase at 1 uM incubated for 48 hrs by propidium iodide staining based flow cytometry (reference value: 3.68%); type: functional
KARPAS-299 [3] = assay: Cell cycle arrest in human KARPAS299 cells expressing […] assessed as accumulation of cells at G1 phase at 1 uM incubated for 48 hrs by propidium iodide staining based flow cytometry (reference value: 58.94%); type: functional
[4] = molecular target: Proto-oncogene tyrosine-protein kinase ROS (Homo sapiens, UniProt P08922); assay: Inhibition of recombinant human N-terminal GST-tagged ROS (1883 to 2347 residues) expressed in baculovirus expression system using IRS1 as substrate incubated with enzyme and substrate for 5 mins followed by ATP addition followed by further incubation for 30 mins by HTRF assay
KARPAS-299 [5] = assay: Cell cycle arrest in human KARPAS299 cells expressing […] assessed as accumulation of cells at S phase at 1 uM incubated for 48 hrs by propidium iodide staining based flow cytometry (reference value: 28.83%); type: functional

Chain of Proto-oncogene tyrosine-protein kinase ROS (P08922 whole entry, the tested form may be a part): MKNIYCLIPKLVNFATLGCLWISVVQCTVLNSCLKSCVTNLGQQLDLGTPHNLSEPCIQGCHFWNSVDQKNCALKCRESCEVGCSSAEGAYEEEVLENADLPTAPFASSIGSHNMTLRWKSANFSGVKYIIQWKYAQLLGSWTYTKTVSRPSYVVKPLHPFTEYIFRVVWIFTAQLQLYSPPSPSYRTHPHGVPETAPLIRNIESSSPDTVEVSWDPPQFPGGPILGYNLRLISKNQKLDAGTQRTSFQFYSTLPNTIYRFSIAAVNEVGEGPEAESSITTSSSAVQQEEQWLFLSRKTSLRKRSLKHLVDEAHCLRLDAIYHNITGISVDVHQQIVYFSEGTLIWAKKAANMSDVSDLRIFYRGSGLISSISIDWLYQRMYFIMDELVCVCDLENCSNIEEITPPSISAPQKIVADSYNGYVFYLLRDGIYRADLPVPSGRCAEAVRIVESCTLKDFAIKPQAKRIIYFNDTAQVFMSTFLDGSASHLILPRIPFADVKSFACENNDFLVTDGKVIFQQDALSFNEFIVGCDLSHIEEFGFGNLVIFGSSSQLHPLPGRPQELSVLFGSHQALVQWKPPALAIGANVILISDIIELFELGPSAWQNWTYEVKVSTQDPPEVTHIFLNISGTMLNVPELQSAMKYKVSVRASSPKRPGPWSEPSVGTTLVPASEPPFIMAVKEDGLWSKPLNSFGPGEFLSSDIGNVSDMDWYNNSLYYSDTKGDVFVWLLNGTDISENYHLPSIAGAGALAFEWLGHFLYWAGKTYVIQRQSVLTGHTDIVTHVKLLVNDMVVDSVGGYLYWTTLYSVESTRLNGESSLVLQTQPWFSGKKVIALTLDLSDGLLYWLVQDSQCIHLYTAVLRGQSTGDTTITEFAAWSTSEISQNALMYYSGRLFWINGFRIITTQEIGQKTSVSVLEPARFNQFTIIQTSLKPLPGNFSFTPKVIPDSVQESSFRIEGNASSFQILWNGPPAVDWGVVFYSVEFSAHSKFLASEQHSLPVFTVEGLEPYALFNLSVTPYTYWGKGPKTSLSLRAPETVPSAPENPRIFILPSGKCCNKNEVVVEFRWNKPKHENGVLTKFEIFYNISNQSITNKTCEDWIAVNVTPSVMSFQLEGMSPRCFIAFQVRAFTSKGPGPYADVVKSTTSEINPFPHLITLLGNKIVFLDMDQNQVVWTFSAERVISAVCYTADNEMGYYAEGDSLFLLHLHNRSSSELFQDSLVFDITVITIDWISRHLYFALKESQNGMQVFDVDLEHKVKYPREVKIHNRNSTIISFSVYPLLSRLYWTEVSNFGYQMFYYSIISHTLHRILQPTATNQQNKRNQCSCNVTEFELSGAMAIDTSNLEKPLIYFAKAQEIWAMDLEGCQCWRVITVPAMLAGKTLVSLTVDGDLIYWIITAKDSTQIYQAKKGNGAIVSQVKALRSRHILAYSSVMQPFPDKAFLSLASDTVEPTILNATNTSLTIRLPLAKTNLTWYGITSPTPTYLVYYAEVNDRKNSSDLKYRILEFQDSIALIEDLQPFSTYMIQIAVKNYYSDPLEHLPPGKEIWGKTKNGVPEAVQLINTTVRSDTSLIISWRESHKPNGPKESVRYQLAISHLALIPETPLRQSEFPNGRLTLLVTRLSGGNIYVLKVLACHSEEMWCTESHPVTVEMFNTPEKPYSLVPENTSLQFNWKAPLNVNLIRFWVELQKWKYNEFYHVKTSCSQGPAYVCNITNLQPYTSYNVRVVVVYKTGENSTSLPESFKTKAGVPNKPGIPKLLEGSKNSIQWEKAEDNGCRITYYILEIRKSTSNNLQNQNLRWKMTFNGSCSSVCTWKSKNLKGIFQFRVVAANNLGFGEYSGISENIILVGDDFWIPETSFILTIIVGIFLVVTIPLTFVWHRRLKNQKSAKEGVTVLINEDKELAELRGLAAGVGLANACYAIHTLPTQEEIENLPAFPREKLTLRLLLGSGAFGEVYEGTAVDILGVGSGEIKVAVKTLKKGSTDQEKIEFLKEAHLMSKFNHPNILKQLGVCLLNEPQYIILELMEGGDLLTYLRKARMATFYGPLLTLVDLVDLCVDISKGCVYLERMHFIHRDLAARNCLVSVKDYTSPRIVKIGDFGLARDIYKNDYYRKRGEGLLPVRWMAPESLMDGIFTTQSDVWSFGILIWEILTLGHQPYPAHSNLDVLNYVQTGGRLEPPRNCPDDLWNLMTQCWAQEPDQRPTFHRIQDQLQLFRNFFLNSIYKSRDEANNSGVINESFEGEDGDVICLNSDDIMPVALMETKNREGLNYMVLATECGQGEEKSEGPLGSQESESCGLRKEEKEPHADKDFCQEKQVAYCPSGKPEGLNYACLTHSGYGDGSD

Compound | IC50 (KARPAS-299 [1]) [nM] | further results
C[C@@H](Sc1cc(-c2ccn(Cc3ccccc3)c(=O)c2)cnc1N)c1c(Cl)ccc(F)c1Cl | 790 | 
C[C@@H](Oc1cc(-c2cc[nH]c(=O)c2)cnc1N)c1c(Cl)ccc(F)c1Cl | 50 | IC50 (cells): 750 nM; IC50 (SH-SY5Y): 2070 nM; IC50 (NCI-H2228): 640 nM
CC(Oc1cc(-c2cc[nH]c(=O)c2)cnc1N)c1ccccc1 (stereo not given) | 4400 | 
CC(Oc1cc(-c2ccn(C)c(=O)c2)cnc1N)c1ccccc1 (stereo not given) | 2860 | 
CC(Oc1cc(-c2ccn(C)c(=O)c2)cnc1N)c1ccncc1 (stereo not given) | > 20000 | 
Cc1ccc(C(C)Oc2cc(-c3ccn(C)c(=O)c3)cnc2N)cc1 (stereo not given) | 7780 | 
C[C@@H](Oc1cc(-c2ccn(Cc3ccccc3)c(=O)c2)cnc1N)c1c(Cl)ccc(F)c1Cl | 130 | IC50 (cells): 1020 nM; IC50 (SH-SY5Y): 1350 nM; IC50 (NCI-H2228): 1300 nM
Cc1ccc(C(C)Oc2cc(-c3cc[nH]c(=O)c3)cnc2N)cc1 (stereo not given) | 10200 | 
C[C@@H](Oc1cc(-c2ccn(CCN(C)C)c(=O)c2)cnc1N)c1c(Cl)ccc(F)c1Cl | 40 | Activity (KARPAS-299 [2]): 5.43%; Activity (KARPAS-299 [3]): 81.46%; IC50 (cells): 710 nM; IC50 (SH-SY5Y): 1670 nM; IC50 (NCI-H2228): 440 nM; IC50 [4]: 2.3 nM; Activity (KARPAS-299 [5]): 8%
CC(Oc1cc(-c2ccn(C)c(=O)c2)cnc1N)c1ccccn1 (stereo not given) | 11900 | 
CC(Oc1cc(-c2ccn(C)c(=O)c2)cnc1N)c1cccnc1 (stereo not given) | 11200 | 

Further lines, with some results ahead:

IC50 (KARPAS-299 [1]) [nM] | Compound | further results
720 | C[C@@H](Sc1cc(-c2cc[nH]c(=O)c2)cnc1N)c1c(Cl)ccc(F)c1Cl | 
60 | CCn1ccc(-c2cnc(N)c(O[C@H](C)c3c(Cl)ccc(F)c3Cl)c2)cc1=O | IC50 (cells): 1440 nM; IC50 (SH-SY5Y): 2510 nM; IC50 (NCI-H2228): 1200 nM
280 | C[C@@H](Sc1cc(-c2ccn(CCN(C)C)c(=O)c2)cnc1N)c1c(Cl)ccc(F)c1Cl | 
110 | CCCn1ccc(-c2cnc(N)c(O[C@H](C)c3c(Cl)ccc(F)c3Cl)c2)cc1=O | IC50 (cells): 1430 nM; IC50 (SH-SY5Y): 2150 nM; IC50 (NCI-H2228): 1220 nM
> 20000 | CC(NC(=O)c1cc(-c2ccn(C)c(=O)c2)cnc1N)c1c(Cl)ccc(F)c1Cl (stereo not given) | 
> 20000 | CC(NC(=O)c1cc(-c2cc[nH]c(=O)c2)cnc1N)c1c(Cl)ccc(F)c1Cl (stereo not given) | 
400 | C[C@@H](Sc1cc(-c2ccn(C)c(=O)c2)cnc1N)c1c(Cl)ccc(F)c1Cl | 
20900 | CC(Oc1cc(-c2ccn(C)c(=O)c2)cnc1N)c1ccc(Cl)cc1 (stereo not given) | 
210 | CCOC(=O)Cn1ccc(-c2cnc(N)c(O[C@H](C)c3c(Cl)ccc(F)c3Cl)c2)cc1=O | IC50 (cells): 1230 nM; IC50 (SH-SY5Y): 1850 nM; IC50 (NCI-H2228): 3320 nM
17800 | CC(Oc1cc(-c2cc[nH]c(=O)c2)cnc1N)c1ccc(Cl)cc1 (stereo not given) | 
40 | C[C@@H](Oc1cc(-c2ccn(C)c(=O)c2)cnc1N)c1c(Cl)ccc(F)c1Cl | IC50 (cells): 830 nM; IC50 (SH-SY5Y): 1870 nM; IC50 (NCI-H2228): 690 nM
320 | CC(Oc1cc(-c2ccn(Cc3ccccc3)c(=O)c2)cnc1N)c1c(Cl)ccc(F)c1Cl (racemic) | 
200 | CC(Oc1cc(-c2ccn(C)c(=O)c2)cnc1N)c1c(Cl)ccc(F)c1Cl (racemic) | 
120 | CC(Oc1cc(-c2cc[nH]c(=O)c2)cnc1N)c1c(Cl)ccc(F)c1Cl (racemic) | 

From ChEMBL document CHEMBL4406858, “Discovery of 2-aminopyridines bearing a pyridone moiety as potent ALK inhibitors to overcome the crizotinib-resistant mutants” (Eur J Med Chem, 2019)
